One compound from patent US6342504B1, “Aromatic heterocyclic derivatives as enzyme inhibitors” (priority 1994, dated 2002) can be followed below.

Structures can show the parent of a compound that is named as a salt. Where two headings read alike, the source gives them in different places.

The target of assay [1] is T1, human alpha thrombin (Homo sapiens, UniProt P00734).
T1 construct: Purified human alpha-thrombin; purchased Enzyme Research Laboratories, Inc
As to the kind of experiment: Thrombin (fIIa) IC50 assay, chromogenic substrate Pefachrome t-PA. Type of assay: biochemical. The protocol:
The ability of compounds of the present invention to act as a selective inhibitor of thrombin catalytic activity was assessed by determining the concentration of compound which inhibited the activity of this enzyme by 50%, (IC50), and comparing this value to that determined for all or some of the following related serine proteases: recombinant tissue plasminogen activator (rt-PA), plasmin, activated protein C, chymotrypsin, factor Xa and trypsin.
The buffer used for all assays was HBSA (10 mM HEPES, pH 7.5, 150 mM sodium chloride, 0.1% bovine serum albumin).
The assay for IC50 determinations was conducted by combining in appropriate wells of a Corning microtiter plate, 50 microliters of HBSA, 50 microliters of the test compound at a specified concentration (covering a broad concentration range) diluted in HBSA (or HBSA alone for VO (uninhibited velocity) measurement), and 50 microliters of the enzyme diluted in HBSA. Following a 30 minute incubation at ambient temperature, 50 microliters of the substrate at the concentrations specified below were added to the wells, yielding a final total volume of 200 microliters. The initial velocity of chromogenic substrate hydrolysis was measured by the change in absorbance at 405 nm using a Thermo Max® Kinetic Microplate Reader over a 5 minute period in which less than 5% of the added substrate was utilized. The concentration of added inhibitor which caused a 50% decrease in the initial rate of hydrolysis was defined as the IC50 value.
Enzyme activity was determined using the chromogenic substrate, Pefachrome t-PA (CH3SO2-D-hexahydrotyrosine-glycyl-L-Arginine-p-nitroaniline, obtained from Pentapharm Ltd.). The substrate was reconstituted in deionized water prior to use. Purified human a-thrombin was obtained from Enzyme Research Laboratories, Inc. The buffer used for all assays was HBSA (10 mM HEPES, pH 7.5, 150 mM sodium chloride, 0.1% bovine serum albumin).
IC50 determinations were conducted where HBSA ([…]), a-thrombin (50 μl) and inhibitor (50 μl) (covering a broad concentration range), were combined in appropriate wells and incubated for 30 minutes at room temperature prior to the addition of substrate Pefachrome-t-PA (50 μl). The initial velocity of Pefachrome t-PA hydrolysis was measured by the change in absorbance at 405 nm using a Thermo Max® Kinetic Microplate Reader over a 5 minute period in which less than 5% of the added substrate was utilized. The concentration of added inhibitor which caused a 50% decrease in the initial rate of hydrolysis was defined as the IC50 value.

Assay [2] has as its system pooled normal human plasma. Description: Ex vivo anticoagulant effect: activated partial thromboplastin time (APTT) in plasma. Type of assay: biochemical. The method, then: FIG. 6 depicts the anticoagulant effect of [3-[(benzylsulfonyl)amino]-2-oxo-1,2-dihydropyridyl] acetyl-L-arginal measured in citrated human plasma, closed circles (l), using the activated partial thromboplastin time (APTT) assay. […] The data is the mean of two independent determinations.
The ex vivo anticoagulant effect of [3-[(benzylsulfonyl)amino]-2-oxo-1,2-dihydropyridyl]acetyl-L-argininal was determined by measuring the prolongation of the activated partial thromboplastin time (APTT) over a broad concentration range of the added inhibitor, using pooled normal human plasma. Fresh frozen citrated pooled normal human plasma was obtained from George King Biomedical, Overland Park, Kans. Measurements of APTT were made using the Coag-A-Mate RA4 automated coagulometer (General Diagnostics, Organon Technica, Oklahoma City, Okla.) using the Platelin® L reagent (Organon Technica, Durham, N.C.) as the initiator of clotting according to the manufacturer's instructions. The assay was conducted by making a series of dilutions of the test compounds in rapidly thawed plasma followed by adding 200 microliters to the wells of the assay carousel.

Assay [3] deals with clot formation on silk thread in A-V shunt. Description: Multiple extracorporeal (A-V) shunt model in rats utilizing oral dosing. In kind it is in vivo. The conditions noted are these: rat, read-out: ED50 value (dose that reduced the clot size by 50%). The method, then: The compounds of Example 10 and 143 were evaluated in a multichamber A-V shunt model in rats. The A-V shunt model is one of the most common and generally used systems to evaluate antithrombotic compounds: Smith, J. R. and White, A. M. Br. J. Pharmacol., 77: 29-38 (1982). In this model a localized clot made up of primarily fibrin with some platelet and macrophage involvement (Shand, R. A. and Smith, J. R. and Wallis, R. B. Thromb. Res., 36: 223-232 (1984)), is formed on an artificial thrombogenic surface (typically a segment of silk or cotton thread) contained in a sialstic chamber which is part of an exteriorized shunt between the carotid artery and jugular vein. The procedure described in this Example is a modified A-V shunt model that allows for oral dosing of test agents and subsequent evaluation of efficacy over a two to three hour window in time.
Briefly, male Harlan Sprague Dawley rats (420-450 g) were acclimated at least 72 hours prior to use. The animals were fasted for 12 hours prior to surgery with free access to water. Unanesthetized animals were grouped into three or four dosage groups (six or seven animals per group) and administered test agents orally via gavage needle, at doses of 1.0, 3.0, 10 and 50 mg/kg for the compound of Example 10, and 3.0, 10 and 30 mg/kg for the Compound of Example 143. Immediately after oral dosing, animals were anesthetized with sodium pentobarbital (Nembutal) given intraperitoneally at a dose of 50 mg/kg body weight, and placed on a isothermal pad to maintain body temperature. The level of anesthesia was monitored every 15 minutes by neuro-response to a tail pinch, respiration and core temperature. The desired depth of surgical anesthesia was maintained by administering subsequent doses (5 mg/kg) intravenously. The left femoral artery was catheterized using standard procedures for blood pressure monitoring and blood sampling, with polyethylene tubing (PE50). The left femoral vein was catheterized with PE50 tubing for delivery of anethestic.
The exteriorized shunts were assembled by connecting two pieces of saline filled 12.5 cm PE90 tubing with a 6 cm piece of PE160 tubing containing a 6 cm piece of silk suture size 3 and clamped with hemostats. A small 0.5 cm portion of the silk thread protrudes from the junction of the chamber with the shunt. The left jugular vein and right carotid artery were catheterized with the ends of the PE90 shunt. The shunt was unclamped and blood allowed to flow from the carotid artery, through the chamber, and exit the shunt via the jugular vein. After 15 minutes, both sides of the chamber were clamped and the suture containing the clot removed following detachment of the arterial end of the chamber. The clot was immediately weighed and recorded. This procedure takes place at predetermined intervals (60, 90, 120, and 150 minutes after oral dosing) to allow assessment of efficacy over a large window in time. Four shunts were placed with flow initiated at 45, 75, 105, and 135 minutes after oral compound administration. Clot weight from the four shunts was the primary endpoint of the protocol. Blood pressure, heart rate core temperature and respiration were monitored continuously. Following termination of the experiment the animals were euthanized with a 120 mg/kg dose of Nembutal. One experiment was performed per animal.
ED50 values were calculated at 60, 90, 120, and 150 minutes after oral dosing of test compound. ED50 is that dose that reduced the clot size by 50%. […]

By IC50 is commonly meant the midpoint of a concentration-inhibition curve. Low readings indicate greater potency, high ones weaker potency. One may read the ED50 as the dose that gives a 50% effect, or the effect in half of the subjects.

As for `N=C(N)NCCC[C@@H](C=O)NC(=O)Cn1cccc(NS(=O)(=O)Cc2ccccc2)c1=O` [Example 10, [3-[(benzylsulfonyl)amino]-2-oxo-1,2-dihydropyridyl]acetyl-L-argininal, trifluoroacetate salt], in assay [1], half-maximal inhibition (IC50) was put at 0.66 nM. In addition, the “concentration which caused a doubling of the control clotting time (APTT)” value in assay [2] (citrated human plasma, control clotting time 29 seconds, mean of two independent determinations) was 7.7 µM. Besides, the “prolongation of the APTT” value in assay [2] (pooled normal human plasma, broad concentration range) is recorded as “prolonged the APTT in a dose dependent manner”. The 50% effective dose (ED50) in assay [3] (1 h, 60 min after oral dose) was less than 1 mg/kg; in assay [3] (1.5 h, 90 min after oral dose), 2.9 mg/kg; in assay [3] (2 h, 120 min after oral dose), 2.9 mg/kg; in assay [3] (150 min after oral dose), 8.2 mg/kg.
